In PMC12040169 (PLOS Biology, 2025) one finds viability data, which are given here for 35 compounds.

A short description of the first series: in vitro. The settings on record: human, hela cells, % viability.
`CCN(CC)CCNC(=O)c1ccc(/C=N/O)nc1` [CBK288375]: the viability at 28.5 h, 10 µM stood at 100%.
On the same count and under the same terms, with `O=C1c2ccccc2NC(c2ccccc2F)N1O` (centres unmarked) [CBK288377] the figure was 93.4%.
Same read-out and setting: with `N#Cc1cc2c([nH]c1=S)CCN(Cc1ccccc1)C2` [CBK288378] the figure was 90.3%; with `COc1ccc(Cl)cc1-n1c(-c2ccc3ccccc3n2)n[nH]c1=S` [CBK288382], 95.4%.
Still for that read-out and setting: the same measure for `CC(=O)N1CCN(Cc2oc(C)cc(=O)c2O)CC1` [CBK288383]: 91.6%; for `Oc1ccccc1-c1n[nH]c(=S)n1-c1ccc(OC(F)(F)F)cc1` [CBK288384]: 85.9%; for `COc1cccc(NC(=O)c2cc3ccccc3o/c2=N\O)c1` [CBK288387]: 86%.
As to `CCOc1ccc(Cc2nnc(S)n2C2CC2)cc1OCC` [CBK288388], the viability at 28.5 h, 10 µM amounted to 66.4%.
On to `Cc1cccc(NC(=O)c2ccc3n[nH]c(=S)n3c2)c1` [CBK288389], for which the viability at 28.5 h, 10 µM was found to be 88%.
On the same count and under the same terms, with `CC1(C)CC(=O)C(C(=S)Nc2ccccc2)=C(O)C1` [CBK288395] the figure was 95.3%; with `Cc1ccc(C(=O)O)cc1NC(=S)NC1CC1` [CBK288397], 94.4%; with `O=C1CNC(=S)N1c1cccc(C(F)(F)F)c1` [CBK288398], 104%.
`O=C(Nc1ccccc1)N(O)CC(O)COc1ccccc1` (centres unmarked) [CBK288399]: the viability at 28.5 h, 10 µM worked out at 90.7%.
The same measure, in the same setting: with `O=c1cc(CO)oc(CN2CCSCC2)c1O` [CBK288404] the figure was 89%; with `O=C(/C=N/O)Nc1cc(C(F)(F)F)ccc1Cl` [CBK288405], 107%.
With `CN(C)c1ccc(-c2[nH][nH]c(=O)c2CCCN)cc1` [CBK288406], the viability at 28.5 h, 10 µM turned out to be 105%.
The same measure, in the same setting: the same measure for `CCN(CC)CCNC(=O)/C(=N\O)c1ccccc1` [CBK288408]: 106%; for `Cn1c(=O)c2c(nc(S)n2CCCc2ccccc2)n(C)c1=O` [CBK288411]: 105%.
On the same count and under the same terms, with `Sc1nnc(C2CCCC2)n1CC1CCCO1` (centres unmarked) [CBK288413] the figure was 107%; with `CCc1ccccc1NC(=S)Nc1cccc(C)n1` [CBK288415], 103%.
In the case of `O=C(NCc1cccnc1)/C(=N\O)c1ccccc1` [CBK288416], the viability at 28.5 h, 10 µM was determined as 102%.
Consider `CNC(=S)NCc1nc(-c2ccc(C)cc2)no1` [CBK288418], for which the viability at 28.5 h, 10 µM was 97.3%.
On the same count and under the same terms, with `Cn1c(=O)c2c(=S)[nH]c(-c3ccccc3)nc2n(C)c1=O` [CBK288422] the figure was 103%; with `COCc1nnc(S)n1-c1cccc(OC)c1` [CBK288424], 87.7%; with `S=C(Nc1nc2c(s1)CCCC2)NC1CC1` [CBK288425], 90.1%.
The same measure, in the same setting: the same measure for `O=C1c2ccccc2NC(c2cccc(O)c2)N1O` (centres unmarked) [CBK288426]: 98.2%; for `O=C(NCc1ccccc1)/C(=N\O)c1ccccc1` [CBK288427]: 91.9%; for `CC1CN(C)C(c2ccccc2)C(C)C12NC(=O)N=C2O` (centres unmarked) [CBK288428]: 88.1%.
On the same count and under the same terms, the same measure for `Sc1nnc(-c2cccc(Br)c2)o1` [CBK288432]: 101%; for `NC(=S)N1N=C(c2ccccc2)CC1c1ccccc1` (centres unmarked) [CBK288435]: 95.6%.
In the case of `COc1cccc(-c2cc3c(=S)[nH]ccn3n2)c1` [CBK288437], the viability at 28.5 h, 10 µM came out at 88%.
On the same count and under the same terms, the same measure for `COc1ccc(-c2cc3n[nH]c(=O)n3c(C)n2)cc1` [CBK288439]: 91.1%; for `Cc1cc(-c2c(C)n(-c3ccccc3)[nH]c2=O)n2ncnc2n1` [CBK288441]: 89.4%; for `O=C1CCCC2=C1C(c1ccccc1O)c1c([nH][nH]c1=O)N2` (centres unmarked) [CBK288442]: 90.2%.

Staying with this series, now noted: human, hela cells, % viability, bulk resorufin, single well.
Turning to `O=C1NC(=O)C(CCc2ccncc2)(c2ccccc2)C(=O)N1` [CBK288431], the viability at 28.5 h, 10 µM came out at 96.9%.
